Tests used:
buffaloes = test: Example 3: vinegar, dilute acetic acid or acidified sodium acetate, no control group, buffaloes
Procedure: (§1) The first study was conducted in a population primarily comprising cows and buffaloes. […] Equal number of animals were used in the standard/control group for comparison. The animals were in the study group were allowed to undergo one insemination. Thereafter, i.e. within 35-50 minutes, the material prepared according to the process described in Example 1 was administered to the animals in the study group. The animals in the control/standard group were not subject to administration of any material. Mating or insemination was not controlled. All the animals were allowed to move freely in their usual environment and were kept on normal diet. Their behavior and temperature/temperament especially of the study group. was monitored.
(§2) These animals were administered vinegar, dilute acetic acid, and sodium acetate solution in acidic pH separately.

cows = test: Example 3: vinegar, dilute acetic acid or acidified sodium acetate, no control group, cows
Procedure: as §1, §2

cows and buffaloes = test: Example 3: totals for cows and buffaloes together
Procedure: as §1, §2

CC(=O)O [Acetic Acid dilute, acetic acid]
Animals not conceived (buffaloes): 3 | No. of Miscarriages (buffaloes): Nil | OFFSPRING Females (buffaloes): 11 | OFFSPRING Males (buffaloes): Nil | OFFSPRING Females (cows; cows, no control group): 6 | OFFSPRING Males (cows; cows, no control group): Nil | Animals not conceived (cows; female, cows, in vivo): 2 | No. of Miscarriages (cows; in vivo): Nil | female offsprings delivered (cows and buffaloes; cows and buffaloes together): 17 | share of female offsprings (cows and buffaloes; cows and buffaloes together): 100% | animals that did not conceive (cows and buffaloes; female, cows and buffaloes, in vivo): 5 | animals that reported miscarriage (cows and buffaloes; in vivo): no animals reported miscarriage

CC(=O)[O-].[Na+] [Sodium Acetate Acidified, sodium acetate]
Animals not conceived (buffaloes): 2 | No. of Miscarriages (buffaloes): Nil | OFFSPRING Females (buffaloes): 8 | OFFSPRING Males (buffaloes): Nil | Animals not conceived (cows; cows, no control group): 1 | No. of Miscarriages (cows; cows, no control group): Nil | OFFSPRING Females (cows; cows, no control group): 4 | OFFSPRING Males (cows; cows, no control group): Nil | animals that did not conceive (cows and buffaloes; cows and buffaloes together): 3 | female offsprings delivered (cows and buffaloes; cows and buffaloes together): 12 | share of female offsprings (cows and buffaloes; cows and buffaloes together): 100%

Source: patent US7351581B2, “In vivo method for producing female offsprings in bovines” (priority 2000, dated 2008)
